Test results as given in the RepoRT retention time repository (doi:10.1093/pcp/pcn183).
Counter-ions that a name gives are not always drawn.

assay: RP, Waters ACQUITY UPLC BEH C18, 38 °C, 0.24 mL/min; A: water + 0.1% formic acid, pH 3; B: acetonitrile + 0.1% formic acid, pH 3; gradient (min/%B) 0/0 0.25/0 0.4/9 0.8/17 1.9/100 2.1/100 2.11/0 3/0; details: stereoisomer not certain

Compound | LC retention time [min]
CCCC[C@H](N)C(=O)O [L-Norleucine] | 0.57
O=C(O)c1ccc(O)c(O)c1 [3,4-Dihydroxybenzoic acid] | 1.14
COc1cc(-c2oc3cc(O)cc(O)c3c(=O)c2O)ccc1O [Isorhamnetin] | 1.7
CCC[C@H](N)C(=O)O [L-Norvaline] | 0.25
COc1ccc(-c2coc3cc(OC4OC(CO)C(O)C(O)C4O)ccc3c2=O)cc1 (configuration not stated) [Ononin] | 1.52
COc1cc(-c2[o+]c3cc(O)cc(O)c3cc2OC2OC(CO)C(O)C(O)C2O)cc(OC)c1O (configuration not stated) [Oenin] | 1.29
N[C@@H](CSCC(=O)O)C(=O)O [S-Carboxymethyl-L-cysteine] | 0.2
NC(=O)C[C@H](N)C(=O)O [L-Asparagine] | 0.16
CNC1(C)C2CCC(C2)C1(C)C (configuration not stated) [Mecamylamine hydrochloride] | 1.35
NCCc1cnc[nH]1 [Histamine] | 0.14
OCC1OC(OCC2OC(O)C(O)C(O)C2O)C(O)C(O)C1O (configuration not stated) | 0.19
O=c1ccn(C2OC(COP(=O)(O)OP(=O)(O)OC3OCC(O)C(O)C3O)C(O)C2O)c(=O)[nH]1 (configuration not stated) [UDP-xylose] | 0.21
NCCc1c[nH]c2ccccc12 [3-(2-Aminoethyl)indole Hydrochloride] | 1.22
CC[C@H](C)[C@H](N)CC(=O)O [L-beta-Homoisoleucine hydrochloride] | 1.1
O=C1CC[C@@H](C(=O)O)N1 [L-Pyroglutamic acid] | 0.41
OCC1OC(Oc2cc3c(OC4OC(CO)C(O)C(O)C4O)cc(O)cc3[o+]c2-c2ccc(O)c(O)c2)C(O)C(O)C1O (configuration not stated) [cyanidin-3,5-di-O-glucoside chloride] | 1.11
NCCC(=O)O [beta-Alanine] | 0.16
CC(=O)Nc1ccc(O)cc1 [Acetaminophen] | 1.15
O=C(O)[C@@H]1C[C@@H](O)CN1 [trans-4-Hydroxy-L-proline] | 0.17

Compound | LC retention time [min]
NC(N)=NCCCC(N)C(=O)O (stereo not drawn) [L(+)-Arginine] | 0.16
OCCN(CCO)CCO [2,2',2''-Nitrilotriethanol] | 0.17
CN(C)C(=N)N=C(N)N [1,1-Dimethylbiguanide hydrochloride] | 0.21
CC(C)C(O)(CC(=O)O)C(=O)O (configuration not stated) [2-Isopropylmalic acid] | 1.21
NCC(=O)O [Glycine] | 0.16
NC(=O)CC[C@H](N)C(=O)O [L-Glutamine] | 0.17
c1ccc(NC[C@@H]2CCCN2)cc1 [(S)-(+)-2-(anilinomethyl)pyrrolidine] | 1.27
O=C(O)C1CCCCN1 (racemic) [DL-Pipecolinic acid] | 0.27
CC(C)[N+](=O)[O-] [2-nitropropane] | 0.3
CC(=O)OCC=C(C)CCC=C(C)CCC=C(C)C (mixture of isomers) [(cis,trans)-Farnesyl acetate] | 2
O=C(O)Cc1cc(O)ccc1O [Homogentisic acid] | 1.1
CC[C@H](N)C(=O)O [L-2-Aminobutyric acid] | 0.18
CC=C(C)C(=O)NCC(=O)O [N-Tigloylglycine] | 1.18
O=c1[nH]c(=O)c2ncn(C3OC(COP(=O)(O)O)C(O)C3O)c2[nH]1 (configuration not stated) | 0.48
O=P(O)(O)OC1C(O)C(O)C(OP(=O)(O)O)C(O)C1O (configuration not stated) | 2.13
Nc1ncn[nH]1 [3-Amino-1,2,4-triazole] | 0.18
OCC1OC(Oc2cc3c(O)cc(O)cc3[o+]c2-c2cc(O)c(O)c(O)c2)C(O)C(O)C1O (stereo not drawn) [Delphinidin-3-O-beta-glucopyranoside] | 1.16
O=c1c(OC2OCC(O)C(O)C2O)c(-c2ccc(O)c(O)c2)oc2cc(O)cc(O)c12 [Quercetin-3-D-xyloside] | 1.43
